According to US20240124454A1, “TRICYCLIC COMPOUND AND USE THEREOF” (NANJING ZAIMING PHARMACEUTICAL CO., LTD., priority 2020, published 2024):
pIC50: −log10 of the molar value. Where two headings read alike, the source gives them in different places.

Columns and labels:
[1] = biological target: MAT2A (Homo sapiens (Human), UniProt P31153); assay: MAT2A biochemical test (inorganic phosphate colorimetric, PiColorLock); conditions: read-out: MAT2A inhibitory Activity IC50
Procedure, shortened: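 Compounds tested from 10 μM top concentration in 3-fold dilutions, preincubated 120 min at room temperature with MAT2A ([…] final) in Tris/KCl/MgCl2/EDTA/BSA buffer. Reaction started with […] L-methionine and 400 μM ATP, run 90 min at room temperature; phosphate read by PiColorLock after 30 min. IC50 fitted from % inhibition versus no-enzyme and DMSO controls.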

[2] = tested on: HCT116 MTAP^−/− cells; assay: Cell proliferation inhibition test (Cell-Titer Glo), HCT116 MTAP−/−; type: cell-based, human; conditions: Homo sapiens, HCT-116, 144 h, 6 days, read-out: HCT116 MTAP−/− Antiproliferative activity IC50
Procedure: (§1) Test Example 3. Cell Proliferation Inhibition Test of Human Colon Cancer HCT116 WT Cells and HCT116 MTAP-1-Cells
(§2) The brief introduction of the test principle: After the test MAT2A inhibitor was incubated with cancer cells for a period of time, the effect of the test compound on cell proliferation was measured using a cell proliferation count method based on the ATP content.
(§3) Reference: The experiment referred to the method disclosed in patent WO2018045071.
(§4) Material and cell: HCT116 WT cells and HCT116 MTAP^−/− cells were purchased from KYinno; fetal bovine serum, McCoy's 5a culture medium, and penicillin-streptomycin were purchased from Gibco Company (U.S.), 96-well plates were purchased from Corning Company (U.S.), and the Cell-Titer Glo reagent was purchased from Promega Company (U.S.).
(§5) Cell culture: HCT116 WT cells and HCT116 MTAP^−/− cells were cultured with a McCoy's 5a medium containing 10% fetal bovine serum+1% penicillin-streptomycin at 37° C. with 5% CO2.
(§6) Cells at logarithmic growth phase were available for the experiment.
(§7) Cell proliferation activity test: The Cell-Titer Glo reagent was used to test the compound for inhibitory activity on proliferation of both HCT116 WT and HCT116 MTAP^−/− cell strains. The cells were adjusted to a concentration of 400 cells per well, seeded on a 96-well plate, and incubated overnight at 37° C. with 5% CO2.
(§8) In the experimental group, the test compound was diluted sequentially with DMSO and a culture medium, and transferred to a cell plate at a final concentration of 10 μM, 3-fold dilution. The cells were continuously cultured at 37° C. with 5% CO2 for 6 days. The Cell-Titer Glo reagent was added and the cell activity was measured.
(§9) A negative control group and a positive control group were respectively used as Bottom and Top. The negative control group was not added with cells, only added with the culture medium in the same volume, and other operations were consistent with those of the experimental group. The positive control group was not added with the test compound, only added with DMSO in the same volume, and other operations were consistent with those of the experimental group.
(§10) The % Compound inhibition was calculated and fitted to give the IC50 of the compound.
(§11) % Compound inhibition=1-100%×(Signal−Bottom)/(Top−Bottom).
(§12) Signal referred to the signal value of the experimental group, Bottom referred to the average signal value of the negative control group, and Top referred to the average signal value of the positive control group.
(§13) HCT116 MTAP^−/− cells are cells not expressing MTAP protein obtained by site-directed knockout of wild type HCT116 (HCT116 WT) cells by gene knockout. Synthetic lethality will occur due to MAT2A inhibition and the deletion of MTAP, thereby causing tumor cell death. The activity and selectivity of the MAT2A inhibitor can be evaluated by testing the antiproliferative activity of the MAT2A inhibitor on human colon cancer HCT116 MTAP^−/− cells and human colon cancer HCT116 WT.

[3] = tested on: HCT116 WT cells; assay: Cell proliferation inhibition test (Cell-Titer Glo), HCT116 WT; type: cell-based, human; conditions: Homo sapiens, HCT-116, 144 h, 6 days, read-out: HCT116 WT Antiproliferative activity IC50
Procedure: as §1, §2, §3, §4, §5, §6, §7, §8, §9, §10, §11, §12, §13

Chain of MAT2A (P31153 whole entry): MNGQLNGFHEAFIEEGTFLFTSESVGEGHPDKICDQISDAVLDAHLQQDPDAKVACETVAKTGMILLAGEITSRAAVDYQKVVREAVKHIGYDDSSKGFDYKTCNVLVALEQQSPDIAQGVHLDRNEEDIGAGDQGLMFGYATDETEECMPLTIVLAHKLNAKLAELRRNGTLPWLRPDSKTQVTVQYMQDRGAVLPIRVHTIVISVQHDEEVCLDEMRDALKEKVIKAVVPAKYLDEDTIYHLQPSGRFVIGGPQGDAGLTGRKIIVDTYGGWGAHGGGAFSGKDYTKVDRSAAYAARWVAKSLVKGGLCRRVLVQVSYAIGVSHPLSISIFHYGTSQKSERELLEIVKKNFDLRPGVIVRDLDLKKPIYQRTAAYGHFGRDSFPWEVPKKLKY

pIC50 ([1]; class symbols) | pIC50 ([1]; numeric values) | pIC50 [2] | pIC50 [3] | SMILES
> 7.00 | 7.63 | 6.89 | 5.08 | Cn1cnc2c(=O)n(-c3cccnc3C(F)(F)F)c3cc(Cl)ccc3c21 (single isomer, unassigned) [Compound 47-P2, 7-chloro-1-methyl-5-(2-(trifluoromethyl)pyridin-3-yl)-1,5-dihydro-4H-imidazo[4,5-c]quinolin-4-one]
> 7.00 | 7.28 | 6.73 | 5.71 | O=c1c2ncoc2c2ccc(C(F)(F)F)nc2n1-c1cccnc1C1CC1 (atropisomer, axis not shown) [Compound 81, 5-(2-cyclopropylpyridin-3-yl)-7-(trifluoromethyl)oxazolo[4,5-c][1,8]naphthyridin-4(5H)-one]
> 7.00 | 7.56 | 6.71 | 5.66 | Cn1cnc2c(=O)n(-c3cccc(C#N)c3Cl)c3nc(C(F)(F)F)ccc3c21 (single isomer, unassigned) [Compound 73-P2, 2-chloro-3-(1-methyl-4-oxo-7-(trifluoromethyl)-1,4-dihydro-5H-imidazo[4,5-c][1,8]naphthyridin-5-yl)benzonitrile]
> 7.00 | 7.53 | 6.37 | 5.38 | O=c1c2nc(C(F)(F)F)[nH]c2c2ccc(C(F)(F)F)nc2n1-c1ccccc1Cl [Compound 9, 5-(2-chlorophenyl)-2,7-bis(trifluoromethyl)-1,5-dihydro-4H-imidazo[4,5-c][1,8]naphthyridin-4-one]
> 7.00 | 7.30 | 6.63 | < 5.00 | Cn1cnc2c(=O)n(-c3cccnc3C(F)(F)F)c3cc(Cl)ccc3c21 (atropisomer, axis not shown) [Compound 47, 7-chloro-1-methyl-5-(2-(trifluoromethyl)pyridin-3-yl)-1,5-dihydro-4H-imidazo[4,5-c]quinolin-4-one]
> 7.00 | 7.42 | 6.31 | 5.10 | COc1c(F)cccc1-n1c(=O)c2ncn(C)c2c2ccc(C(F)(F)F)nc21 (single isomer, unassigned) [Compound 70-P2, 5-(3-fluoro-2-methoxyphenyl)-1-methyl-7-(trifluoromethyl)-1,5-dihydro-4H-imidazo[4,5-c][1,8]naphthyridin-4-one]
> 7.00 | 7.09 | 6.88 | 6.22 | Cc1ccc2c3c(ncn3C)c(=O)n(-c3cccc(F)c3Cl)c2n1 [Compound 38, 5-(2-chloro-3-fluorophenyl)-1,7-dimethyl-1,5-dihydro-4H-imidazo[4,5-c][1,8]naphthyridin-4-one]

SMILES | pIC50 ([1]; class symbols) | pIC50 ([1]; numeric values) | pIC50 [2] | pIC50 [3]
[2H]C([2H])([2H])n1cnc2c(=O)n(-c3cccc(F)c3Cl)c3nc(C(F)(F)F)ccc3c21 [Compound 44, 5-(2-chloro-3-fluorophenyl)-1-(methyl-d3)-7-(trifluoromethyl)-1,5-dihydro-4H-imidazo[4,5-c][1,8]naphthyridin-4-one] | > 7.00 | 7.31 | 7.15 | 6.18
[2H]C([2H])([2H])n1cnc2c(=O)n(-c3cccnc3C)c3nc(C(F)(F)F)ccc3c21 [Compound 72, 1-(methyl-d3)-5-(2-methylpyridin-3-yl)-7-(trifluoromethyl)-1,5-dihydro-4H-imidazo[4,5-c][1,8]naphthyridin-4-one] | > 7.00 | 7.28 | 6.72 | 6.01
Cn1cnc2c(=O)n(-c3cccnc3C3CC3)c3cc(Cl)ccc3c21 (atropisomer, axis not shown) [Compound 49, 7-chloro-5-(2-cyclopropylpyridin-3-yl)-1-methyl-1,5-dihydro-4H-imidazo[4,5-c]quinolin-4-one] | > 7.00 | 7.55 | 7.06 | 5.79
Cn1cnc2c(=O)n(-c3cccnc3)c3nc(C(F)(F)F)ccc3c21 [Compound 64, 1-methyl-5-(pyridin-3-yl)-7-(trifluoromethyl)-1,5-dihydro-4H-imidazo[4,5-c][1,8]naphthyridin-4-one] | > 7.00 |  | 6.40 | 5.98
